Assay results from US20040214320A1, “Mammalian gamete and embryo culture media supplement and method of using same” (Vitrolife, Inc,, priority 2000, published 2004).
Marks after values point to notes of the source that are not given here.

Legend:
Assay type in all cases: cell-based
outbred mouse embryo = experiment: Outbred mouse embryo development in culture, fertilized eggs cultured 4 days (G1.2 48 h, then G2.2 48 h)
Protocol: Embryos were cultured at 37° C. in 6% CO2:5% O2:89% N2 in an embryo incubation volume of 10 embryos: 20 μl of medium. Embryos were cultured in medium G 1.2 for 48 h followed by 48 h of culture in medium G 2.2.
Initial experiments investigated replacing albumin purified from blood with HYN for outbred mouse embryo development in culture. Fertilized eggs were cultured for 4 days in one of 4 different concentrations of HYN. Embryos were cultured at 37° C. in 6% CO2:5% O2:89% N2 in an embryo incubation volume of 10 embryos: 20 μl of medium. Embryos were cultured in medium G1.2 for 48 h followed by 48 h of culture in medium G2.2. The negative control treatment was no protein.
Fertilized eggs were cultured for 4 days. Embryos were cultured at 37° C. in 6% CO2:5% O2:89% N2 in an embryo incubation volume of 10 embryos: 20 μl of medium. Embryos were cultured in medium G 1.2 for 48 h followed by 48 h of culture in medium G 2.2.
Embryos were cultured at 37° C. in 6% CO2:5% O2:89% N2 in an embryo incubation volume of 10 embryos: 20 μl of medium. Embryos were cultured in medium G1.2 for 48 h followed by 48 h of culture in medium G2.2.

mouse embryo = experiment: Mouse embryo development in culture, 48 h in G1.2, with or without citrate
Protocol: Embryos were cultured at 37° C. in 6% CO2:5% O2:89% N2 in an embryo incubation volume of 10 embryos: 20 μl of medium. Embryos were cultured in medium G1.2 for 48 h.

cow embryos = experiment: Cow embryo development in culture, fertilized eggs cultured 6 to 7 days (G1.2 72 h, then G2.2 72 h); conditions: Example 7, cow
Protocol: (§1) Fertilized eggs were cultured for 6 to 7 days. Embryos were cultured at 38.5° C. in 6% CO2:5% O2:89% N2 in 500 μl of medium. Embryos were cultured in medium G1.2 for 72 h followed by 72 h of culture in medium G2.2.
as §1
Fertilized eggs were cultured for 6 to 7 days. Embryos were cultured at 38.5° C. in 6% CO2:5% O2:89% N2 in 500 μl of medium. Embryos were cultured in medium G1.2 for 72 h, followed by 72 h of culture in medium G2.2. Blastocysts were either stained for cell numbers or frozen and subsequently thawed to assess survival.

CF1 mouse blastocysts = experiment: Blastocyst attachment and outgrowth in culture following cryopreservation
Protocol: The ability of the blastocysts to outgrow in culture following cryopreservation was also assessed. The outgrowth of both the ICM and TE was scored between 0-3 where 0 represented no outgrowth and 3 represented extensive outgrowth.

[1] = treatment +/+ (citrate in first 48 h / further 48 h), medium with rHA and HYN
[2] = treatment +/− (citrate in first 48 h / further 48 h), medium with rHA and HYN
[3] = treatment −/+ (citrate in first 48 h / further 48 h), medium with rHA and HYN
[4] = citrate added to medium G1.2 with rHA and HYN
[5] = HYN 0.125 mg/ml, no protein, 4 days culture
[6] = HYN 0.5 mg/ml, no protein, 4 days culture
[7] = HYN 1 mg/ml, no protein, 4 days culture

Molecule: O=C(O)CC(O)(CC(=O)O)C(=O)O [citrate]
- embryo development (outbred mouse embryo; Example 6, citrate added to medium with rHA and HYN, 96 h): significantly increased
- % ICM/Total (outbred mouse embryo; [1]): 30.4%
- Cell Number (outbred mouse embryo; [1]): 100.7
- Hatching (% of Total) (outbred mouse embryo; [1]): 18.2%
- Morula/Blastocyst (%) (outbred mouse embryo; [1]): 72.7%
- TE Number (outbred mouse embryo; [1]): 69.8
- Total Blastocyst (%) (outbred mouse embryo; [1]): 62.7%
- % ICM/Total (outbred mouse embryo; [2]): 30.7%
- Cell Number (outbred mouse embryo; [2]): 112.6
- Hatching (% of Total) (outbred mouse embryo; [2]): 16.8%
- ICM Number (outbred mouse embryo; [2]): 34.9
- Morula/Blastocyst (%) (outbred mouse embryo; [2]): 71.3%
- TE Number (outbred mouse embryo; [2]): 77.7
- Total Blastocyst (%) (outbred mouse embryo; [2]): 67.3%
- % ICM/Total (outbred mouse embryo; [3]): 34.5%
- Cell Number (outbred mouse embryo; [3]): 94.8
- Hatching (% of Total) (outbred mouse embryo; [3]): 23.2%
- ICM Number (outbred mouse embryo; [3]): 33.4
- Morula/Blastocyst (%) (outbred mouse embryo; [3]): 68.5%
- TE Number (outbred mouse embryo; [3]): 61.44
- Total Blastocyst (%) (outbred mouse embryo; [3]): 64.8%
- % 8 cell (mouse embryo; [4]): 81.1* %
- % compacted (mouse embryo; [4]): 12.2* %
- Day 3 mean cell number (mouse embryo; [4]): 7.21 ± 0.13
- embryo development (mouse embryo; citrate added to medium containing rHA and fermented HYN): significant increase

Molecule: hyaluronan [HYN]
- % ICM/Total (outbred mouse embryo; [5]): 26.5 ± 0.6^ac %
- Blastocyst (outbred mouse embryo; [5]): 88.6^a
- Cell Number (outbred mouse embryo; [5]): 79.6 ± 1.9^bc
- Hatching (outbred mouse embryo; [5]): 57.1b^c
- ICM Number (outbred mouse embryo; [5]): 21.2 ± 0.8^bc
- TE Number (outbred mouse embryo; [5]): 58.7 ± 1.5^bc
- % ICM/Total (outbred mouse embryo; [6]): 28.3 ± 1.1^bc %
- Blastocyst (outbred mouse embryo; [6]): 100^a
- Cell Number (outbred mouse embryo; [6]): 64.2 ± 1.9^ac
- Hatching (outbred mouse embryo; [6]): 50^b
- ICM Number (outbred mouse embryo; [6]): 18.0 ± 0.7^ac
- TE Number (outbred mouse embryo; [6]): 46.7 ± 2.0^a
- % ICM/Total (outbred mouse embryo; [7]): 26.4 ± 0.9^ac %
- Blastocyst (outbred mouse embryo; [7]): 61.8^b
- Cell Number (outbred mouse embryo; [7]): 62.0 ± 2.7^ac
- Hatching (outbred mouse embryo; [7]): 23.5^a
- ICM Number (outbred mouse embryo; [7]): 17.5 ± 0.8^ac
- TE Number (outbred mouse embryo; [7]): 49.1 ± 2.5^a
- mouse embryo development (outbred mouse embryo; concentrations from 0.125 to 0.5 mg/ml): stimulated
- Total Blastocyst Day 6 (cow embryos; day 6): 16.9^b
- Total Blastocyst Day 7 (cow embryos; day 7): 30.4
- development of the ICM (outgrowth) compared to human serum albumin (CF1 mouse blastocysts): increased
